Measured values reported in patent US20220267374A1, “IMMUNITY INDUCER AND PHARMACEUTICAL COMPOSITION FOR PREVENTING OR TREATING AGING-RELATED DISEASES” (priority 2019, published 2022).
Ends that are not written are not given here.

Assays:
Format in all cases: in vivo, C57BL/6 mice
[1] = tested on: Gpnmb, Cdkn1a, and Cdkn2a; test: RNA analysis (qPCR) of adipose tissue; conditions: HFD-fed mice, 16 weeks of age, s.c. vaccination at 8 weeks of age, FIG. 2C
Protocol: Total RNA (1 μg) was isolated from adipose tissue samples using RNA-Bee (TEL-TEST Inc.). Real-time PCR (qPCR) was performed using a Light Cycler 480 (Roche) equipped with a universal probe library and a Light Cycler 480 probe master (Roche) according to the manufacturer's instructions. Rplp0 was used as an internal control.
RNA analysis of Gpnmb, Cdkn1a, and Cdkn2a was performed using the same method as in “4.” of Reference Example 1, except that adipose tissue collected from C57BL/6 mice (16 weeks of age) bred by feeding HFD from 4 weeks of age and administered with peptide vaccine 1 or a control vaccine by subcutaneous injection at a time point of 8 weeks of age was used. In FIG. 2C, “Cont vac” is a C57BL/6 mouse administered with a control vaccine, and “Gpnmb vac” is a C57BL/6 mouse administered with peptide vaccine 1.

GPNMB protein = test: Western blotting analysis of adipose tissue; conditions: HFD-fed mice, 16 weeks of age, s.c. vaccination at 8 weeks of age, vs control vaccine, FIGS. 2C, 2D
Protocol: For adipose tissue collected from C57BL/6 mice (16 weeks of age) bred by feeding HFD from 4 weeks of age and administered with peptide vaccine 1 or a control vaccine by subcutaneous injection at a time point of 8 weeks of age, whole-cell lysates were prepared in lysis buffer (containing 10 mmol/L of Tris-HCl (pH 8), 140 mmol/L of sodium chloride, 5 mmol/L of EDTA, 0.025% of NaN3, 1 w/v % of Triton X-100, 1 w/v % of deoxycholic acid, 0.1 w/v % of SDS, 1 mmol/L of phenylmethylsulfonyl fluoride (PMSF), 5 μg/mL of leypeptin, 2 μg/mL of aprotinin, 50 mmol/L of NaF, and 1 mmol/L of […]). Then the lysates (40 to 50 μg) was separated by SDS-PAGE, the protein was transferred to a PVDF membrane (Millipore), and this was incubated with a primary antibody, followed by horseradish peroxidase (Jackson)-binding anti-rabbit immunoglobulin G (Jackson ImmunoResearch). GPNMB and β-actin were detected by enhanced chemiluminescence (Amersham). As a primary antibody, an anti-GPNMB antibody (AF2330, R & D Systems) (1/1000 dilution) was used, and as a control, anti-β-actin antibody (#4967, Cell Signaling) (1/5000 dilution) was used. As a secondary antibody, peroxidase-binding AffiniPure goat anti-rabbit IgG (H+L) (111-035-003, Jackson ImmunoResearch) (1/10000 dilution) was used. […]

[2] = tested on: aging-related acidic β-galactosidase (SA-β-gal); test: SA-β-gal staining of adipose tissue; conditions: HFD-fed mice, 16 weeks of age, s.c. vaccination at 8 weeks of age, vs control vaccine, FIGS. 2G, 2H
Protocol: Aging-related acidic β-galactosidase (SA-β-gal) activity in adipose tissue was tested. Briefly, adipose tissue newly isolated from each Gpnmb-DTR mouse was incubated at 37° C. for 2 hours in a β-gal staining solution (containing 1 mg/ml of 5-bromo-4-chloro-3-indaryl β-D-galactopyranoside (X-gal), 5 mmol/L potassium ferrocyanide, 150 mmol/L of sodium chloride, 2 mmol/L of magnesium chloride, 0.01% of sodium deoxycholate, and 0.02% of nonidet-40). Then, the stained adipose tissue was captured (refer to FIG. 1C). SA-β-gal stainability was quantified by Image-J software (refer to FIG. 1D). […]
SA-β-gal staining was performed using the same method as in “3.” of Reference Example 1, except that adipose tissue collected from C57BL/6 mice (16 weeks of age) bred by feeding HFD from 4 weeks of age and administered with peptide vaccine 1 or a control vaccine by subcutaneous injection at a time point of 8 weeks of age was used. The SA-β-gal stainability was quantified by Image-J software (refer to FIG. 2H). […]

[3] = Metabolic test (glucose tolerance test and insulin tolerance test); conditions: HFD-fed mice, 16 weeks of age, s.c. vaccination at 8 weeks of age; compared to control vaccine; FIG. 2I
Protocol: Mice were bred individually from 1 week before the test. On the day of the glucose tolerance test (GTT), mice were fasted for 6 hours, followed by intraperitoneal injection of glucose at a dose of 1 g/kg (body weight) in the early afternoon. For the insulin tolerance test (ITT), mice were intraperitoneally administered with human insulin (1 U/kg (body weight)). After administration of glucose or insulin, tail venous blood was collected 0, 15, 30, 60 and 120 minutes later, and the blood glucose level was measured with a glucose analyzer (Sanwa Chemical Research Institute).
A metabolic test was performed using the same method as in “5.” of Reference Example 1, except that C57BL/6 mice (16 weeks of age) bred by feeding HFD from 4 weeks of age and administered with peptide vaccine 1, peptide vaccine 2, or control vaccine by subcutaneous injection at a time point of 8 weeks of age were used. In FIG. 2I, “Cont vaccine” is a C57BL/6 mouse administered with a control vaccine, “Gpnmb vaccine 1” is a C57BL/6 mouse administered with peptide vaccine 1, and “Gpnmb vaccine 2” is a C57BL/6 mouse administered with peptide vaccine 2.

## RRGDGRWKD (also: KLH conjugate; listed as Mus musculus) [peptide vaccine 1, peptide of positions 63 to 71 of mouse GPNMB protein]
[1]
  expression of Cdkn1a: downregulation
  expression of Cdkn2a: downregulation
GPNMB protein
  expression amount of GPNMB protein: decreased
[2]
  SA-β-gal activity: decrease
[3]
  metabolic abnormality induced by HFD intake (glucose tolerance test and insulin tolerance test): significantly improved
